From patent US7273856B2, “Linear basic compounds having NK-2 antagonist activity and formulations thereof” (Menarini Ricerche S.P.A., priority 2001, dated 2007)
Where a name gives a salt, the structure may show the parent alone.

Target: T1, human NK-2 receptor (Homo sapiens, UniProt P21452)
T1 construct: expressed in transfected cells; host or cells: CHO (Chinese hamster ovary) cells, membranes
T1 sequence (P21452 1-398): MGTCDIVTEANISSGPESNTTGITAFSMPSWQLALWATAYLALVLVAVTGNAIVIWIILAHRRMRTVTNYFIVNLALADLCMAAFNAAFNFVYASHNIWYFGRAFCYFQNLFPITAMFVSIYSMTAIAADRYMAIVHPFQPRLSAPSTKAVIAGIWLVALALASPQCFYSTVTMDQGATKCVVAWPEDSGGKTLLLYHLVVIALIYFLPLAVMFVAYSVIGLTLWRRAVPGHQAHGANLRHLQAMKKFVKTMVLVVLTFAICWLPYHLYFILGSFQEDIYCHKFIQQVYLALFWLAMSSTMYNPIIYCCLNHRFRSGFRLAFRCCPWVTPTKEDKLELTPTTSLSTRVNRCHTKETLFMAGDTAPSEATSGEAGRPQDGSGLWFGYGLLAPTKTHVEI
Assay: binding test, affinity for the human NK-2 receptor, competition with [125I]NKA on transfected CHO cell membranes
Conditions: CHO cell membranes transfected with NK-2 receptor of human ileum; [125I]NKA 100 pM; 30 min, 20° C.
Method: The evaluation of the antagonist activity on NK-2 receptors has been assessed by binding and functional tests according to that already described in literature in relation to NK-2 antagonists.
The test substances have been tested within a concentration range from 0.01 nM to 10 nM. At the end of the incubation time (30 min, 20° C.) the samples have been filtered and radioactivity has been determined using a gamma-counter.

| Structure (SMILES) | Ki [nM] | pKi |
| --- | --- | --- |
| Cc1ccc(C[C@@H](NC(=O)C2(NC(=O)c3ccc(-c4ccccc4)cc3)CCCC2)C(=O)N[C@H]2CC[C@@H](C(=O)N[C@H]3CCCC[C@@H]3N)C2)cc1 [Example 16, N^γ{N^α[N^α(biphenyl-4-carboxy)-1-aminocyclopentan-1-carboxy]-R-3(4(methyl)phenyl)alanyl}-(1R,3S)-3-aminocyclopentane-1-carboxylic-acid-N-((1S,2S)-2-aminocyclohexyl) amide hydrochloride salt] | 0.501 | – |
| Cc1ccc(C[C@@H](NC(=O)C2(NC(=O)c3cc4ccccc4n3C)CCCC2)C(=O)N[C@H]2CC[C@@H](C(=O)N[C@H]3CCCC[C@@H]3N)C2)cc1 [Example 17, N^γ{N^α[N^α(N-(methyl)indol-2-ylcarboxy)-1-aminocyclopentan-1-carboxy]-R-3-(4-methyl)phenyl)alanyl}-(1R,3S)-3-aminocyclopentane-1-carboxylic-acid-N-((1S,2S)-2-aminocyclohexyl)amide hydrochloride salt] | 2.51 | – |
| Cc1ccc(C=CC(=O)NC2(C(=O)NC(Cc3ccc(C)cc3)C(=O)NC3CCC(C(=O)NC4CCCCC4N)C3)CCCC2)cc1 [Example 18, N^γ{N^α[N^α(4-(methyl)cynnamoyl)-1-aminocyclopentan-1-carboxy]-R-3[4-methyl)phenyl]alanyl}-(1R,3S)-3-aminocyclopentane-1-carboxylic-acid-N-((1S,2S)-2-aminocyclohexyl)amide hydrochloride salt] | 0.794 | – |
| CCCCN(CCCC)CCCNC(=O)[C@@H](Cc1ccccc1)NC(=O)C1(NC(=O)c2cc3ccccc3s2)CCCCC1 [Example 19, N^α[N^α(benzo[b]thiophen-2-yl-carbonyl)-1-aminocyclohexan-1-carboxy]-D-phenylalanine-N-{3-[bis(n-butyl)amino]propyl}amide] | – | 8.9 |
| O=C(NC1(C(=O)N[C@H](Cc2ccccc2)C(=O)NCCCN2CCOCC2)CCCCC1)c1cc2ccccc2s1 [Example 20, N^α[N^α(benzo[b]thiophen-2-yl-carbonyl)-1-aminocyclohexan-1-carboxy]-D-phenylalanine-N-[3(morpholin-4-yl)propyl]amide] | – | 9.1 |
| O=C(N[C@]1(C(=O)N[C@H](Cc2ccccc2)C(=O)NCCCN2CCOCC2)CCc2ccccc21)c1cc2ccccc2s1 [Example 23, N^α[N^α(benzo[b]thiophen-2-ylcarbonyl)-1-(R)-amino-indan-1-carboxy]-D-phenylalanine-N-[3(morpholin-4-yl)propyl]amide] | 2 | – |
| NC1CCCCC1NC(=O)C1CCCC(NC(=O)[C@H](Cc2ccccc2)NC(=O)C2(NC(=O)c3cc4ccccc4s3)CCCC2)C1 (stereo partly drawn) [Example 26, acid-3-cis-N^γ{N^α[N^α(benzo[b]thiophen-2-ylcarbonyl)-1-aminocyclopentane-1-carboxy]-L-phenylalanil}aminocyclohexane-1-carboxylic-N-(2-cis-aminocyclohexyl) amide] | 0.0501 | – |
| N[C@@H]1CCCC[C@H]1NC(=O)[C@@H]1C[C@@H](NC(=O)[C@@H](Cc2ccccc2)NC(=O)C2(NC(=O)c3cc4ccccc4s3)CCCCC2)CN1 [Example 27, N^γ{N^α[N^α(benzo[b]thiophen-2-ylcarbonyl)-1-aminocyclohexane-1-carboxy]-D-phenylalanil}-(L-(4R)amino-proline-N-(1R,2R)-aminocyclohexyl) amide] | 0.0631 | – |
| N[C@@H]1CCCC[C@@H]1NC(=O)C1CCCC(NC(=O)[C@@H](Cc2ccccc2)NC(=O)C2(NC(=O)c3cc4ccccc4s3)CCCC2)C1 (stereo partly drawn) [Example 30, acid-3-cis-N^γ{N^α[N^α(benzo[b]thiophen-2-ylcarbonyl)-1-aminocyclopentane-1-carboxy]-D-phenylalanil}aminocyclohexane-1-carboxylic-N-[(1S,2R)-aminocyclohexyl]amide] | 0.1 | – |
| N[C@H]1CCCC[C@@H]1NC(=O)C1CCCC(NC(=O)[C@@H](Cc2ccccc2)NC(=O)C2(NC(=O)c3cc4ccccc4s3)CCCC2)C1 (stereo partly drawn) [Example 31, acid-3-cis-N^γ{N^α[N^α(benzo[b]thiophen-2-ylcarbonyl)-1-aminocyclopentan-1-carboxy]-D-phenylalanil}aminocyclohexan-1-carboxylic-N-[(1S,2S)-aminocyclohexyl]amide] | 0.0794 | – |
| CN1CCN(C[C@@H]2CC[C@H](NC(=O)[C@@H](Cc3ccccc3)NC(=O)C3(NC(=O)c4cc5ccccc5s4)CCCC3)C2)CC1 [Example 32] | 1.26 | – |
| CN1CCN(C(=O)[C@@H]2CC[C@H](NC(=O)[C@@H](Cc3ccccc3)NC(=O)C3(NC(=O)c4cc5ccccc5s4)CCCC3)C2)CC1 [Example 33, N^α[N^α(benzo[b]thiophen-2-ylcarbonyl)-1-aminocyclopentan-1-carboxy]-D-phenylalanine amide-N-[(1S,3R)-3-(4-(methyl)piperazin-1-yl)carbonyl)cyclopentane] | 0.631 | – |
| C[C@](Cc1ccccc1)(NC(=O)c1cc2ccccc2s1)C(=O)N[C@H](Cc1ccccc1)C(=O)NCCCN1CCOCC1 [Example 34, N^α[N^α(benzo[b]thiophen-2-ylcarbonyl)-D-α-methylphenylalanil]-D-phenylalanine-N-[3-(morpholin-4-yl)propyl]amide] | 1.26 | – |
| N[C@H]1CCCC[C@@H]1NC[C@@H]1CC[C@H](NC(=O)[C@@H](Cc2ccccc2)NC(=O)C2(NC(=O)c3cc4ccccc4s3)CCCC2)C1 [Example 38] | – | 9.5 |
| O=C(C=Cc1ccc(Cl)c(Cl)c1)NC1(C(=O)N[C@H](Cc2ccccc2)C(=O)NCCCN2CCOCC2)CCCC1 [Example 44, 1-[3-(3,4-dichlorophenyl)-acryloylamino]-cyclopentanecarboxylic acid, [1-(3-morpholin-4-yl-propylcarbamoyl)-2-(R)-phenyl-ethyl]-amide] | 0.794 | – |
| CC1CN(CCCNC(=O)[C@@H](Cc2ccccc2)NC(=O)C2(NC(=O)c3cc4ccccc4s3)CCCCC2)CC(C)O1 (stereo partly drawn) [Example 48, Benzo[b]thiophene-2-carboxylic acid (1-{1-[3-(2,6-dimethyl-morpholin-4-yl)-propylcarbamoyl]-2-(R)-phenyl-ethylcarbamoyl}-cyclohexyl)-amide] | 0.398 | – |
| O=C(C=Cc1ccc(Br)c(Br)c1)NC1(C(=O)N[C@H](Cc2ccccc2)C(=O)NCCCN2CCOCC2)CCCC1 [Example 50, 1-[3-(3,4-dibromophenyl)-acryloylamino]-cyclopentanecarboxylic acid [1-(3-morpholin-4-yl-propylcarbamoyl)-2-(R)-phenyl-ethyl]-amide] | 0.398 | – |
| CN1CCCN(CCCNC(=O)[C@@H](Cc2ccccc2)NC(=O)C2(NC(=O)c3cc4ccccc4s3)CCCC2)CC1 [Example 52, Benzo[b]thiophen-2-carboxylic acid, (1-{1(R)-[3-(4-methyl-[1,4]diazepan-1-yl)-propylcarbamoyl]-2-phenylethylcarbamoyl}-cyclopentyl)-amide TFA salt] | 2 | – |
| COC1CCN(CCCNC(=O)[C@@H](Cc2ccccc2)NC(=O)C2(NC(=O)c3cc4ccccc4s3)CCCC2)CC1 [Example 53, Benzo[b]thiophene-2-carboxylic acid (1-{1(R)-[3-(4-methoxy-piperidin-1-yl)-propylcarbamoyl]-2-phenyl-ethylcarbamoyl}-cyclopentyl)-amide TFA salt] | 2.51 | – |
| O=C(NC1(C(=O)N[C@H](Cc2ccccc2)C(=O)NCCCN2CCC3(CC2)OCCO3)CCCC1)c1cc2ccccc2s1 [Example 55, Benzo[b]thiophene-2-carboxylic acid (1-{1(R)-[3-(1,4-dioxa-8-aza-spiro[4.5]dec-8-yl)-propylcarbamoyl]-2-phenyl-ethylcarbamoyl}-cyclopentyl)-amide TFA salt] | 1 | – |
| C[C@@H]1CN(C(=O)CCNC(=O)[C@@H](Cc2ccccc2)NC(=O)C2(NC(=O)c3cc4ccccc4s3)CCCC2)C[C@H](C)N1 [Example 56, Benzo[b]thiophene-2-carboxylic acid (1-{1(R)-[3-(3,5-cis-dimethylpiperazin-1-yl)-3-oxo-propylcarbamoyl]-2-phenyl-ethylcarbamoyl}-cyclopentyl)-amide TFA salt] | 1.58 | – |
| O=C(NC1(C(=O)N[C@H](Cc2ccccc2)C(=O)NCCC(=O)N2CCN(c3ccccn3)CC2)CCCC1)c1ccc2cc(Br)ccc2c1 [Example 58, 6-Bromo-naphthalene-2-carboxylic acid (1-{1(R)-[3-oxo-3-(4-pyridin-2-yl-piperazin-1-yl)propylcarbamoyl]-2-phenyl-ethylcarbamoyl}-cyclopentyl)-amide TFA salt] | 3.16 | – |
| O=C(NC1(C(=O)N[C@H](Cc2ccccc2)C(=O)NCCC(=O)N2CCN(CC3COCOC3)CC2)CCCC1)c1cc2ccccc2s1 [Example 62, Benzo[b]thiophene-2-carboxylic acid (1-{1(R)-[3-(4-[1,3]dioxan-5-ylmethyl-piperazin-1-yl)3-oxo-propylcarbamoyl]-2-phenyl-ethylcarbamoyl}-cyclopentyl)-amide TFA salt] | 2 | – |
| NC1(C(=O)N2CCC(CNC(=O)[C@@H](Cc3ccccc3)NC(=O)C3(NC(=O)c4cc5ccccc5s4)CCCC3)CC2)CCCC1 [Example 63, Benzo[b]thiophene-2-carboxylic acid [1-(1(R)-{[1-(1-amino-cyclopentanecarbonyl)piperidin-4-ylmethyl]-carbamoyl}-2-phenyl-ethylcarbamoyl)-cyclopentyl]-amide] | 0.631 | – |
